Experimental data from patent US9650360B2, “Anti-mycobacterial drugs against tuberculosis” (priority 2012, dated 2017).

Test system: Multidrug-Resistant Mycobacterium Tuberculosis (MDR-TB)
Assay: microbe, parasite or virus in culture
Format: cell-based
Details: read-out: minimum inhibitory concentration (MIC)

O=C(/C=C(\O)c1cc(Cc2c(F)cc(F)cc2F)cn(Cc2ccccc2F)c1=O)C(=O)N1CCN(c2cccc3ccccc23)CC1
MIC: < 1 µg/mL
